From PubChem BioAssay (NCI)
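Method: 48-hour compound exposure of cells in 96-well plates, five concentrations, linear interpolation of endpoints. The concentration for 50% growth inhibition is given as GI50. Definition used: TGI = concentration required for complete inhibition of growth.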

Tests used:
Experiment in all cases: growth of human tumour cells (NCI), 48 h
[1] = tested on: 786-0 renal
[2] = tested on: A498 renal
[3] = tested on: ACHN renal
[4] = tested on: BT-549 breast
[5] = tested on: CAKI-1 renal
[6] = tested on: CCRF-CEM leukemia
[7] = tested on: DU-145 prostate
[8] = tested on: EKVX NSCLC
[9] = tested on: HCC-2998 colon
[10] = tested on: HCT-15 colon
[11] = tested on: HL-60(TB) leukemia
[12] = tested on: HOP-92 NSCLC
[13] = tested on: HS 578T breast
[14] = tested on: IGROV1 ovarian
[15] = tested on: LOX IMVI melanoma
[16] = tested on: M14 melanoma
[17] = tested on: MALME-3M melanoma
[18] = tested on: MCF7 breast
[19] = tested on: MDA-MB-231 breast
[20] = tested on: MDA-MB-435
[21] = tested on: NCI-H226 lung
[22] = tested on: NCI-H460 lung
[23] = tested on: NCI-H522 lung
[24] = tested on: NCI/ADR-RES ovarian
[25] = tested on: OVCAR-3 ovarian
[26] = tested on: OVCAR-8 ovarian
[27] = tested on: PC-3 prostate
[28] = tested on: RPMI-8226 leukemia
[29] = tested on: RXF 393 renal
[30] = tested on: SF-268 CNS
[31] = tested on: SF-295 CNS
[32] = tested on: SK-MEL-2 melanoma
[33] = tested on: SK-MEL-28 melanoma
[34] = tested on: SK-MEL-5 melanoma
[35] = tested on: SK-OV-3 ovarian
[36] = tested on: SN12C renal
[37] = tested on: SNB-19 CNS
[38] = tested on: SNB-75 CNS
[39] = tested on: SW-620 colon
[40] = tested on: T-47D breast
[41] = tested on: TK-10 renal
[42] = tested on: U251 CNS
[43] = tested on: UACC-257 melanoma

With `Cc1ccc(NC(=O)c2cc(/C=C/C(=O)NO)cc(C(F)(F)F)c2)cc1Nc1nccc(-c2cccnc2)n1` the GI50 [1] was 2.41 µM, the TGI [1] was 5.31 µM and the GI50 [2] was 3.13 µM. It also gave a TGI [2] of 6.65 µM, a GI50 [3] of 3.12 µM and a TGI [3] greater than 100 µM. The GI50 [4] was 3.3 µM, the TGI [4] was 8.5 µM and the GI50 [5] was 2.23 µM. The TGI [5] was 5.14 µM, the GI50 [6] was 0.559 µM and the TGI [6] was greater than 100 µM. The GI50 [7] was 2.04 µM, the TGI [7] was 6.63 µM and the GI50 [8] was 3.48 µM. It also gave a TGI [8] greater than 100 µM, a GI50 [9] of 1.76 µM and a TGI [9] of 3.56 µM. It also gave a GI50 [10] of 3.34 µM, a TGI [10] greater than 100 µM and a GI50 [11] of 1.08 µM. For the same compound, the TGI [11] was 3.73 µM, the GI50 [12] was 0.58 µM and the TGI [12] was 2.71 µM. It also gave a GI50 [13] of 1.83 µM, a TGI [13] of 6.35 µM and a GI50 [14] of 1.74 µM. It also gave a TGI [14] of 4.36 µM, a GI50 [15] of 1.35 µM and a TGI [15] of 3.02 µM. It also gave a GI50 [16] of 1.34 µM, a TGI [16] of 3.71 µM and a GI50 [17] of 0.58 µM. The TGI [17] was 3.24 µM, the GI50 [18] was 1.75 µM and the TGI [18] was 5.85 µM. For the same compound, the GI50 [19] was 1.14 µM, the TGI [19] was 4.51 µM and the GI50 [20] was 1.53 µM. For the same compound, the TGI [20] was 4.24 µM, the GI50 [21] was 1.78 µM and the TGI [21] was 5.09 µM. It also gave a GI50 [22] of 2 µM, a TGI [22] of 12.3 µM and a GI50 [23] of 1.35 µM. The TGI [23] was 3.19 µM, the GI50 [24] was 44 µM and the TGI [24] was greater than 100 µM. It also gave a GI50 [25] of 1.52 µM, a TGI [25] of 4.21 µM and a GI50 [26] of 1.44 µM. The TGI [26] was 4.68 µM, the GI50 [27] was 3.02 µM and the TGI [27] was greater than 100 µM. The GI50 [28] was 2.11 µM, the TGI [28] was 8.76 µM and the GI50 [29] was 1.66 µM. For the same compound, the TGI [29] was 3.65 µM, the GI50 [30] was 2.35 µM and the TGI [30] was 5.7 µM. The GI50 [31] was 1.77 µM, the TGI [31] was 3.43 µM and the GI50 [32] was 1.09 µM. It also gave a TGI [32] of 3.32 µM, a GI50 [33] of 1.56 µM and a TGI [33] of 5.27 µM. For the same compound, the GI50 [34] was 1.57 µM, the TGI [34] was 3.01 µM and the GI50 [35] was 1.83 µM. It also gave a TGI [35] of 3.78 µM, a GI50 [36] of 2.54 µM and a TGI [36] greater than 100 µM. It also gave a GI50 [37] of 2.7 µM, a TGI [37] of 7.62 µM and a GI50 [38] of 2.66 µM. It also gave a TGI [38] of 5.83 µM, a GI50 [39] of 1.54 µM and a TGI [39] of 5.66 µM. For the same compound, the GI50 [40] was 1.41 µM, the TGI [40] was 5.8 µM and the GI50 [41] was 2.98 µM. The TGI [41] was 6.91 µM, the GI50 [42] was 1.49 µM and the TGI [42] was 3.03 µM. It also gave a GI50 [43] of 1.32 µM and a TGI [43] of 2.8 µM.
